Experimental data from patent publication US4603134A, “Piperazine derivative and pharmaceutical composition containing the same” (Ferrer International, S.A., priority 1984, dated 1986).

Experiments:
[1] = tested on: isolate of guinea-pig ileum; experiment: Anti-histamine activity in an isolate of guinea-pig ileum, suspended in a Tyrode bath at 32°-35° C.; settings: for IC50: Cavia porcellus, isolated guinea-pig ileum, Tyrode bath, 32°-35° C., read-out: anti-histamine activity, ED50
Experimental: The anti-histamine activity was tested in an isolate of guinea-pig ileum, suspended in a Tyrode bath at 32°-35° C. according to a protocol described by R. A. Turner (Screening Methods in Pharmacology, Academic Press, 1965, p. 43).

[2] = tested on: isolate of guinea-pig ileum; settings: background statement on the non-fluorine analog; cited from earlier work
[3] = Activity on the blood stream (vasoactive, antiarrhythmic, hypotensor); settings: no test described

SMILES | IC50 [1] | anti-histaminic effect (in words) [2] | antihistaminic effect compared with non-fluorine analog (in words) ([1]; versus non-fluorine analog (Spanish Pat. No. 514 340)) | activity on the blood stream (in words) [3]
c1ccc(C(c2ccccc2)N2CCN(CCCC3(c4ccccc4)OCCO3)CC2)cc1 [Spanish Pat. 514 340, reference compound] | 350 nM | unsatisfactory |  | 
Fc1ccc(C(c2ccc(F)cc2)N2CCN(CCCC3(c4ccccc4)OCCO3)CC2)cc1 [Example 1, 1-(4,4'-difluorobenzhydryl)-4-(2-phenyl-1,3-dioxolane-2-propyl)piperazine] | 150 nM |  | higher than that of its non-fluorine analog | strong activity on the blood stream
